Values of other authors, collected in patent US20260315500A1, “SOLID CANNABINOID COMPOSITION FOR PARENTERAL USE” (Bender Analytical Holding B.V., priority 2023, published 2026).
≈ marks a conversion by molar mass, not a printed value.

Tests used:
[1] = tested on: neuronal and glial cells; details: preclinical; functional, neuroimaging, histologic and biochemical studies
[2] = 23° C.

Row | SMILES | neuroprotective effects [1] | water solubility [2] [µg/mL]
1 | C=C(C)[C@@H]1CCC(C)=C[C@H]1c1c(O)cc(CCCCC)cc1O [Cannabidiol] | protects neuronal and glial cells, with a remarkable effect on preserving normal myelinogenesis | –
2 | CCCCCc1cc(O)c2c(c1)OC(C)(C)[C@@H]1CCC(C)=C[C@@H]21 [Tetrahydrocannabinol (THC), Tetrahydrocannabinol] | – | 2.8 (≈ 8.9 µM)
